The target in one data set is trypsin. The note with it: read-out: KD for the interaction of trypsin and microviridin J; cited from earlier work. An excerpt: Naturally, microviridins act as competitive inhibitors that bind tightly to their corresponding proteases in a substrate‐like manner, for which turnover is excluded. […] Therefore, the chemical probes that show protease inhibition in the range of the unmodified microviridin derivatives could be expected to work as molecular tools. However, since the activity of dansylated microviridin B is clearly compromised (Table 1), the compound's affinity for elastase might not be strong enough for diagnos ...

A further data set relates to Daphnia. The note with it: microcrustaceans of the genus Daphnia; cited from earlier work. An excerpt: While the bioactivity and mode of action against mammalian serine proteases is well investigated for microviridins[[2a], [8]] and plesiocin,[9] their ecological roles and native targets remain elusive. […] However, neither specific protease targets could be identified, nor could a mode of action be specified. One hypothesis is based on the depletion of the amino acid pool essential for ...

For another data set, the target named is bovine trypsin (Bos taurus, UniProt P00760). As to the kind of experiment: biochemical. The procedure:
(§1) Protease inhibition assay: Microviridins were checked for their inhibitory activity against trypsin and elastase. Therefore, microviridin concentrations of 0.01 μM, 0.1 μM, 1 μM, 10 μM and 100 μM were tested. A sample without microviridin was used as control. As substrates N α‐Benzoyl‐DL‐arginine 4‐nitroanilide hydrochloride (BAPNA) was used for the trypsin assay and N‐Succinyl‐Ala‐Ala‐Ala‐p‐nitroanilide (Suc‐AAA‐pNA) for the elastase assays. The trypsin assay was performed with 16.7 μg/mL (approximately 42.7 U/mL) bovine trypsin (Carl Roth (Germany)) and 108.5 μg/mL BAPNA (Sigma‐Aldrich (Germany)) in 50 mM Tris‐HCl, 20 mM CaCl2, 0.5 % DMSO, pH 7.5. The elastase assay was performed with 50 μg/mL (250 mU/mL) porcine pancreas elastase (Sigma‐Aldrich (Germany) and 500 μg/mL Suc‐AAA‐pNA (Sigma‐Aldrich (Germany)) in 50 mM Tris‐HCl, 20 mM CaCl2, pH 7.5. All microviridins were dissolved in water to a concentration of 500 μM except of tricyclic MvB_CP_N(dansyl), which was dissolved in water containing 10 % DMSO. Before adding the substrate, each enzyme was incubated for 5 min with the respective inhibitor at room temperature. Afterwards, the substrate was added, and the assays were incubated for 15 min (elastase assay) and 30 min (trypsin assay) at 37 °C. The enzymatic activity was measured spectrophotometrically (Varioscan Flash, Thermo Scientific) at 410 nm. The assays were done twice for each sample. IC50 values were calculated using the Quest Graph™ IC50 Calculator.[21]

Data set [1] addresses porcine pancreas elastase (Sus scrofa, UniProt P00772). The data set can be described thus: biochemical. The procedure:
as §1

Bridge positions count the residues as written; N and C are the ends. Peptide text beside a SMILES is read from it. * marks the point of attachment. Biotin = O=C1N[C@H]2[C@H](CS[C@H]2CCCCC(=O)*)N1; Dansyl = CN(C)c1cccc2c(S(=O)(=O)*)cccc12; Propargyl = C#CC*

Broadly, the Kd is the free concentration of one partner at which half of the binding sites on the other are occupied at equilibrium, for simple one-to-one binding. In general, IC50 refers to the midpoint of a concentration-inhibition curve.

bovine trypsin, sequence (P00760 24-246): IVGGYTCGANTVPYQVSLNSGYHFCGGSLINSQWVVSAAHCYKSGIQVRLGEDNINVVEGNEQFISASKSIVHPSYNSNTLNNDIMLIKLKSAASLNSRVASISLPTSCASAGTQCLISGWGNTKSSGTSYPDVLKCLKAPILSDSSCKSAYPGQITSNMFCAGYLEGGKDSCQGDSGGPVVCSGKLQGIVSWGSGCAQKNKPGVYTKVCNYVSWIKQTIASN
porcine pancreas elastase, sequence (P00772 27-266): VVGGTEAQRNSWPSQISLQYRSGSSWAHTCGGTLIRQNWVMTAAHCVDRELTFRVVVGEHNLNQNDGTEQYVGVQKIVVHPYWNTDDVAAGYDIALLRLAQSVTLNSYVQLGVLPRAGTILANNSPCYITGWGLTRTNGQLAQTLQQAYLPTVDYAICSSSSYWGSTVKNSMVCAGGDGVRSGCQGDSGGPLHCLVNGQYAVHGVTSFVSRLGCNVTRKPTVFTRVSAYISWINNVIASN

As for microviridin J, the Kd on trypsin was 680 nM. Besides, in the data set on Daphnia, the “Effect on Daphnia” value is “lethal molting disruption”. As to `C#CCOc1ccc(C[C@H](N)C(=O)N[C@H](C(=O)N[C@@H](CO)C(=O)N[C@@H]2C(=O)N[C@@H](CCCNC(=N)N)C(=O)N[C@H]3CCCCNC(=O)CC[C@@H](C(=O)N[C@@H](Cc4c[nH]c5ccccc45)C(=O)O)NC(=O)[C@@H]4CCC(=O)OC[C@H](NC(=O)[C@@H]5CCCN5C(=O)[C@H](Cc5ccc(O)cc5)NC3=O)C(=O)N[C@@H](CC(=O)O[C@@H]2C)C(=O)N[C@@H](Cc2c[nH]c3ccccc23)C(=O)N4)[C@@H](C)CC)cc1` [MvJ_CP_N(Prop)cy3 (3)] (H-Y(Propargyl)ISTRKYPSDWEEW-OH; ester 4-10, 9-12; lactam 6-13), half-maximal inhibition against bovine trypsin (IC50) was put at 1640 ± 120 nM.

Consider `CC(C)C[C@@H]1NC(=O)[C@@H](NC(=O)[C@@H](NC(=O)CNC(=O)[C@@H](N)Cc2ccccc2)[C@@H](C)O)[C@@H](C)OC(=O)C[C@@H]2NC(=O)[C@@H]3COC(=O)CC[C@H](NC(=O)[C@H](Cc4c[nH]c5ccccc45)NC2=O)C(=O)N[C@H](C(=O)N[C@@H](Cc2ccc(O)cc2)C(=O)O)CCC(=O)NCCCC[C@H](NC1=O)C(=O)N[C@@H](Cc1ccc(O)cc1)C(=O)N1CCC[C@H]1C(=O)N3` [MvB_CPcy3 (4)] (H-FGTTLKYPSDWEEY-OH; ester 4-10, 9-12; lactam 6-13), for which, in data set [1], 330 ± 20 nM corresponded to half-maximal inhibition (IC50). Same read-out and setting: the same measure for `CC(C)C[C@@H]1NC(=O)[C@@H](NC(=O)[C@@H](NC(=O)CNC(=O)[C@H](Cc2ccccc2)NS(=O)(=O)c2cccc3c(N(C)C)cccc23)[C@@H](C)O)[C@@H](C)OC(=O)C[C@@H]2NC(=O)[C@@H]3COC(=O)CC[C@H](NC(=O)[C@H](Cc4c[nH]c5ccccc45)NC2=O)C(=O)N[C@H](C(=O)N[C@@H](Cc2ccc(O)cc2)C(=O)O)CCC(=O)NCCCC[C@H](NC1=O)C(=O)N[C@@H](Cc1ccc(O)cc1)C(=O)N1CCC[C@H]1C(=O)N3` [MvB_CP_N(Dansyl)cy3 (6)] (Dansyl-FGTTLKYPSDWEEY-OH; ester 4-10, 9-12; lactam 6-13): 28000 ± 7170 nM.

In turn, `CC[C@H](C)[C@H](NC(=O)[C@@H](N)CCCCNC(=O)CCCC[C@@H]1SC[C@@H]2NC(=O)N[C@@H]21)C(=O)N[C@@H](CO)C(=O)N[C@@H]1C(=O)N[C@@H](CCCNC(=N)N)C(=O)N[C@H]2CCCCNC(=O)CC[C@@H](C(=O)N[C@@H](Cc3c[nH]c4ccccc34)C(=O)O)NC(=O)[C@@H]3CCC(=O)OC[C@H](NC(=O)[C@@H]4CCCN4C(=O)[C@H](Cc4ccc(O)cc4)NC2=O)C(=O)N[C@@H](CC(=O)O[C@@H]1C)C(=O)N[C@@H](Cc1c[nH]c2ccccc12)C(=O)N3` [MvJ_CP_N(Bio)cy3 (2)] (H-K(Biotin)ISTRKYPSDWEEW-OH; ester 4-10, 9-12; lactam 6-13) had an IC50 against bovine trypsin of 3530 ± 300 nM.

For `CC[C@H](C)[C@H](N)C(=O)N[C@@H](CO)C(=O)N[C@@H]1C(=O)N[C@@H](CCCNC(=N)N)C(=O)N[C@H]2CCCCNC(=O)CC[C@@H](C(=O)N[C@@H](Cc3c[nH]c4ccccc34)C(=O)O)NC(=O)[C@@H]3CCC(=O)OC[C@H](NC(=O)[C@@H]4CCCN4C(=O)[C@H](Cc4ccc(O)cc4)NC2=O)C(=O)N[C@@H](CC(=O)O[C@@H]1C)C(=O)N[C@@H](Cc1c[nH]c2ccccc12)C(=O)N3` [MvJ_CPcy3 (1)] (H-ISTRKYPSDWEEW-OH; ester 3-9, 8-11; lactam 5-12), the IC50 against bovine trypsin came out at 1090 ± 90 nM. In data set [1], `CC(C)C[C@@H]1NC(=O)[C@@H](NC(=O)[C@@H](NC(=O)CNC(=O)[C@H](Cc2ccccc2)NC(=O)[C@@H](N)CCCCNC(=O)CCCC[C@@H]2SC[C@@H]3NC(=O)N[C@@H]32)[C@@H](C)O)[C@@H](C)OC(=O)C[C@@H]2NC(=O)[C@@H]3COC(=O)CC[C@H](NC(=O)[C@H](Cc4c[nH]c5ccccc45)NC2=O)C(=O)N[C@H](C(=O)N[C@@H](Cc2ccc(O)cc2)C(=O)O)CCC(=O)NCCCC[C@H](NC1=O)C(=O)N[C@@H](Cc1ccc(O)cc1)C(=O)N1CCC[C@H]1C(=O)N3` [MvB_CP_N(Bio)cy3 (5)] (H-K(Biotin)FGTTLKYPSDWEEY-OH; ester 5-11, 10-13; lactam 7-14) registered a half-maximal inhibitory concentration (IC50) of 1240 ± 640 nM.

These data come from PMC9826346, “One‐Pot Chemoenzymatic Synthesis of Microviridin Analogs Containing Functional Tags” (Chembiochem, 2022).
